Data set [1] has as its target T1, Thioredoxin reductase 1, cytoplasmic (Homo sapiens) (UniProt Q16881).
T1 sequence (whole entry): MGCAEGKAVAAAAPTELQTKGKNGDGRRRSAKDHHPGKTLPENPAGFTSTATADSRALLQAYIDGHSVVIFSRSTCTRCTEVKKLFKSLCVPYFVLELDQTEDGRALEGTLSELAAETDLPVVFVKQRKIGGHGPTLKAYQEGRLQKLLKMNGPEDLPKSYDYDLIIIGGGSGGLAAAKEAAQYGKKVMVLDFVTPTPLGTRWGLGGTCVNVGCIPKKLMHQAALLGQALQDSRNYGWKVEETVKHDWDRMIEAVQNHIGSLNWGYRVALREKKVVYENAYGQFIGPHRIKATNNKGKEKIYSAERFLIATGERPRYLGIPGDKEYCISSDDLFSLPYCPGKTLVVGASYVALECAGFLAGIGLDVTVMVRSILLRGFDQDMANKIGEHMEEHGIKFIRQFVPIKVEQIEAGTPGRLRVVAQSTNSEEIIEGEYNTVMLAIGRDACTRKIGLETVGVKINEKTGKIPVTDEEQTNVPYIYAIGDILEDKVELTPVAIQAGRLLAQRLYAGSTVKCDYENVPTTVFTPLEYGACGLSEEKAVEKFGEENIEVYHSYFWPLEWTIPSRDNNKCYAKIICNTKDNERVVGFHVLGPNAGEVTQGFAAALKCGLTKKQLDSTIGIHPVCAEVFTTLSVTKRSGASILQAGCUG
The experiment in a line: Inhibition of TrxR1 (unknown origin) using DTNB as substrate preincubated for 1.5 hrs by microplate reader analysis.

Data set [2] concerns the target T1, Thioredoxin reductase 1, cytoplasmic (Homo sapiens). Briefly: Binding affinity to TrxR1 in human A549 cells assessed as thermal stabilization by measuring reduction in thermal denaturation at 200 uM incubated for 90 mins by CETSA analysis. Format: cell-based.
For data set [3], the target named is T2, Thioredoxin reductase 1, cytoplasmic (Homo sapiens, UniProt Q16881).
T2 sequence (Q16881 whole entry): T1 sequence (whole entry)
Briefly: Binding affinity to TrxR1 (unknown origin) assessed as dissociation constant by SPR analysis.

For data set [4], the target named is T1, Thioredoxin reductase 1, cytoplasmic (Homo sapiens). Briefly: Binding affinity to TrxR1 (unknown origin) at Sec498 residue by pull-down analysis.
Data set [5] has the same target. Briefly: Binding affinity to TrxR1 (unknown origin) at Cys475 residue.
Another data set relates to NCI-H1299. The experiment in a line: Cytotoxicity against human NCI-H1299 cells assessed as cell viability incubated for 48 hrs by MTT assay. It is filed as functional, cell-based. As to conditions: NCI-H1299, 48 h.
Data set [6] relates to A549. The experiment in a line: Cytotoxicity against human A549 cells assessed as cell viability incubated for 48 hrs by MTT assay. Format: functional, cell-based. To be noted: A549, 48 h. On the technique in general: Tetrazolium dyes change colour on reduction, which living cells bring about.
Data set [7] has as its system NCI-H460. Briefly: Cytotoxicity against human NCI-H460 cells assessed as cell viability incubated for 48 hrs by MTT assay. As to conditions: NCI-H460, 48 h. It is filed as functional, cell-based.
The nature of data set [8]: Cytotoxicity against human BEAS-2B cells assessed as cell viability incubated for 48 hrs by MTT assay. It is filed as toxicity, cell-based.
The test system of data set [9] is A549. The experiment in a line: Induction of ROS generation in human A549 cells by DCFH-DA probe based flow cytometry analysis. It is filed as functional, cell-based. (A flow cytometer gives signals particle by particle.)
In data set [10] the test system is NCI-H460. The experiment in a line: Induction of ROS generation in human NCI-H460 cells by DCFH-DA probe based flow cytometry analysis. It is filed as functional, cell-based.

Data on 21 compounds can be found in ChEMBL document CHEMBL6121052, “Design of ROS-Triggered Sesquiterpene Lactone SC Prodrugs as TrxR1 Covalent Inhibitors for the Treatment of Non-Small Cell Lung Cancer” (J Med Chem, 2025).

Each structure is given as a SMILES string. pIC50, pKd: −log10 of the molar value. Calls of active or inactive are those of the source. The calls are words filed in the database; no cut-off is given here.

As usually defined, the pKd is −log10 of the Kd, conventionally taken in molar units. For `C=C1C(=O)O[C@H]2CC3=C[C@H](C/C(C)=C/[C@@H](OC(=O)NCCC)[C@H]12)OC3=O`, the inhibition entry in data set [1] was “Active”. Also, the outcome in data set [2], in [4] and in data set [5] was Active. In addition, the pKd in data set [3] was 5.10.

What is called pIC50 is −log10 of the IC50, conventionally taken in molar units. As for `C/C1=C\[C@@H](OC(=O)NCc2ccc(F)cc2)[C@H]2[C@H](CC3=C[C@H](C1)OC3=O)OC(=O)[C@@H]2CSc1ccc(F)cc1`, the pIC50 with NCI-H1299 was 5.27; in the data set with A549 [6], 5.30.

Regarding `C/C1=C\[C@@H](OC(=O)OCc2cccnc2)[C@H]2[C@H](CC3=C[C@H](C1)OC3=O)OC(=O)[C@@H]2CSc1ccc(F)cc1`, the values for the negative logarithm of the IC50 (pIC50) with NCI-H1299 and with A549 [6] were 4.94 and 5.81, respectively.

Regarding `C/C1=C\[C@@H](OC(=O)OC2CC2)[C@H]2[C@H](CC3=C[C@H](C1)OC3=O)OC(=O)[C@@H]2CSc1ccc(F)cc1`, the pIC50 is 5.52 in the data set with NCI-H1299 and 5.41 in the data set on A549 [6].

With `CCCCCSC(=O)O[C@@H]1/C=C(\C)C[C@H]2C=C(C[C@@H]3OC(=O)[C@H](CSC(=S)N(C)C)[C@H]31)C(=O)O2`, the pIC50 in the data set on NCI-H1299 is 5.58; with A549 [6], 5.97.

Usually IC50 stands for the point on the concentration scale where inhibition reaches its midpoint. `C/C1=C\[C@@H](OC(=O)C2CC2)[C@H]2[C@H](CC3=C[C@H](C1)OC3=O)OC(=O)[C@@H]2CSc1ccc(C(F)(F)F)cc1`: the pIC50 in the data set with NCI-H460 [7] was under 4.60; with A549 [6] it was 5.41. The half-inhibitory concentration (IC50) at 48 h in data set [8] is over 25 µM.

For `C/C1=C\[C@@H](OC(=O)OCc2ccc(F)cc2)[C@H]2[C@H](CC3=C[C@H](C1)OC3=O)OC(=O)[C@@H]2CSC(=S)N(C)C`, the pIC50 is 5.53 in the data set on NCI-H1299 and 6.33 in the data set on A549 [6].

Consider `C/C1=C\[C@@H](OC(=O)C2CC2)[C@H]2[C@H](CC3=C[C@H](C1)OC3=O)OC(=O)[C@@H]2CSC(=S)N(C)C`, for which the pIC50 with NCI-H1299 is 5.66; in the data set on NCI-H460 [7] it was 5.11; in the data set with A549 [6] it was 6.24.

Regarding `C/C1=C\[C@@H](OC(=O)C2CC2)[C@H]2[C@H](CC3=C[C@H](C1)OC3=O)OC(=O)[C@@H]2CSc1ccc(F)cc1`, the outcome in the data set with A549 [9] and in the data set with NCI-H460 [10] was Active. For the same compound, the pIC50 with NCI-H460 [7] is under 4.60; in the data set with A549 [6], 5.36. For the same compound, the IC50 at 48 h in [8] was over 25 µM.

`C=C1C(=O)O[C@H]2CC3=C[C@H](C/C(C)=C/[C@@H](O)[C@H]12)OC3=O`: the pKd in data set [3] is 4.37.

Consider `C/C1=C\[C@@H](OC(=O)c2ccccc2)[C@H]2[C@H](CC3=C[C@H](C1)OC3=O)OC(=O)[C@@H]2CSCCCCCSC[C@H]1C(=O)O[C@H]2CC3=C[C@H](C/C(C)=C/[C@@H](OC(=O)c4ccccc4)[C@@H]21)OC3=O`, for which the pIC50 in the data set with NCI-H460 [7] and with A549 [6] was under 4.60 in each case.

As for `C/C1=C\[C@@H](OC(=O)C2CC2)[C@H]2[C@H](CC3=C[C@H](C1)OC3=O)OC(=O)[C@@H]2CSc1ccc(Br)cc1`, the pIC50 in the data set with NCI-H460 [7] was under 4.60; in the data set with A549 [6] it was 5.34. Further, the IC50 at 48 h in [8] was over 25 µM.

For `C/C1=C\[C@@H](OC(=O)C2CC2)[C@H]2[C@H](CC3=C[C@H](C1)OC3=O)OC(=O)[C@@H]2CSC(=S)NCc1cccnc1`, the figures for the pIC50 in the data set on NCI-H460 [7] and in the data set on A549 [6] were 4.82 and 5.85, respectively.

Take `C/C1=C\[C@@H](OC(=O)c2ccccc2)[C@H]2[C@H](CC3=C[C@H](C1)OC3=O)OC(=O)[C@@H]2CSc1ccc([N+](=O)[O-])cc1`: the pIC50 is under 4.60 in the data set with NCI-H460 [7] and 5.59 in the data set with A549 [6].

On to `C/C1=C\[C@@H](O)[C@H]2[C@H](CC3=C[C@H](C1)OC3=O)OC(=O)[C@@H]2CSc1ccc(SC[C@H]2C(=O)O[C@H]3CC4=C[C@H](C/C(C)=C/[C@@H](O)[C@@H]32)OC4=O)cc1`, for which the pIC50 in the data set with NCI-H460 [7] and with A549 [6] was under 4.60 in each case.

Turning to `C/C1=C\[C@@H](OC(=O)c2ccccc2)[C@H]2[C@H](CC3=C[C@H](C1)OC3=O)OC(=O)[C@@H]2CSc1ccc(F)cc1`, the pIC50 in the data set on NCI-H460 [7] was under 4.60; in the data set on A549 [6] it was 5.14.

`C/C1=C\[C@@H](OC(=O)C2CC2)[C@H]2[C@H](CC3=C[C@H](C1)OC3=O)OC(=O)[C@@H]2CSCc1ccc(Cl)cc1`: the pIC50 in the data set on NCI-H460 [7] and with A549 [6] was under 4.60 in each case.

`C/C1=C\[C@@H](O)[C@H]2[C@H](CC3=C[C@H](C1)OC3=O)OC(=O)[C@@H]2CSCCCCCSC[C@H]1C(=O)O[C@H]2CC3=C[C@H](C/C(C)=C/[C@@H](O)[C@@H]21)OC3=O`: the pIC50 with NCI-H460 [7] and in the data set with A549 [6] was under 4.60 throughout.

On to `C/C1=C\[C@@H](OC(=O)c2ccccc2)[C@H]2[C@H](CC3=C[C@H](C1)OC3=O)OC(=O)[C@@H]2CSc1ccc(SC[C@H]2C(=O)O[C@H]3CC4=C[C@H](C/C(C)=C/[C@@H](OC(=O)c5ccccc5)[C@@H]32)OC4=O)cc1`, for which the pIC50 in the data set on NCI-H460 [7] and in the data set with A549 [6] was under 4.60 throughout.

Regarding `C/C1=C\[C@@H](OC(=O)SCC(C)C)[C@H]2[C@H](CC3=C[C@H](C1)OC3=O)OC(=O)[C@@H]2CSc1ccc(F)cc1`, the results for the pIC50 in the data set with NCI-H1299 and in the data set with A549 [6] were 5.27 and 5.59, respectively.

As for `CCCNC(=S)SC[C@H]1C(=O)O[C@H]2CC3=C[C@H](C/C(C)=C/[C@@H](OC(=O)C4CC4)[C@@H]21)OC3=O`, the pIC50 in the data set on NCI-H460 [7] is 4.60; in the data set with A549 [6] it was 5.55.
